Data: patent publication US20130196050A1, “SALTY TASTE ENHANCER” (AJINOMOTO CO., INC., priority 2010, published 2013)

Assays:
ENaC β subunit = molecular target: T1, ENaC β subunit (Homo sapiens, UniProt P51168); settings: literature statement; cited from earlier work
T1 sequence (P51168 1-640): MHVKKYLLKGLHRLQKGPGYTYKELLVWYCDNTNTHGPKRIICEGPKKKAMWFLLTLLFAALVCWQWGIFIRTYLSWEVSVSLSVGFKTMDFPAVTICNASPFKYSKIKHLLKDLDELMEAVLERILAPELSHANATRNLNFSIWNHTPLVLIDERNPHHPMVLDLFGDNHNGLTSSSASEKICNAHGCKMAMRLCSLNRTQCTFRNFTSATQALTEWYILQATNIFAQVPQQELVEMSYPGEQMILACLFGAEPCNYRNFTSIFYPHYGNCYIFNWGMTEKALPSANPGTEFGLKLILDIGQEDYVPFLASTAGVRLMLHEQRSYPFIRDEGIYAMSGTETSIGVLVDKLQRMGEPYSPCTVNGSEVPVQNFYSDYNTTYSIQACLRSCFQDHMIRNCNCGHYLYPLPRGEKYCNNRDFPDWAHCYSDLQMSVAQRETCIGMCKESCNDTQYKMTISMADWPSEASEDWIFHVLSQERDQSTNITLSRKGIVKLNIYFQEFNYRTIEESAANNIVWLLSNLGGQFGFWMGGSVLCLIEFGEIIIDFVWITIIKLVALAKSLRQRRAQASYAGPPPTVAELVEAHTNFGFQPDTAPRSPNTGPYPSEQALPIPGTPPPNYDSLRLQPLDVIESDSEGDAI
T1 sequence (P51170 1-649 partner): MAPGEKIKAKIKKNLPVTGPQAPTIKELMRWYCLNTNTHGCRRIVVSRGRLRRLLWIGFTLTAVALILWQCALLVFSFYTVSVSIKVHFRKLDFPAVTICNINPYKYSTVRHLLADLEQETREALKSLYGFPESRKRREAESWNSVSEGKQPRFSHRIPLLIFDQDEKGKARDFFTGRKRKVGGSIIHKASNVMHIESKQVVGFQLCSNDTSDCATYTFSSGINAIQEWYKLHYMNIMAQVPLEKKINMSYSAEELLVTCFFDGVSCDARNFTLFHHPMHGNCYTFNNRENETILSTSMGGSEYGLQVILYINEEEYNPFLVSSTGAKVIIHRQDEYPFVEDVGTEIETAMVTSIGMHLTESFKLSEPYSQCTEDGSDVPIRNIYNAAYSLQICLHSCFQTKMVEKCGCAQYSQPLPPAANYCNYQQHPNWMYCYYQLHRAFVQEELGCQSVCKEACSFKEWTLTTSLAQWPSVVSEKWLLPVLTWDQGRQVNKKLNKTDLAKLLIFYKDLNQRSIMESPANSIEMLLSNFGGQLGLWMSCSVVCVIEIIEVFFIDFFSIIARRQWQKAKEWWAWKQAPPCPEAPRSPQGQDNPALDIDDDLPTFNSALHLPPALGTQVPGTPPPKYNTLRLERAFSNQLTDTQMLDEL
T1 sequence (P37088 1-669 partner): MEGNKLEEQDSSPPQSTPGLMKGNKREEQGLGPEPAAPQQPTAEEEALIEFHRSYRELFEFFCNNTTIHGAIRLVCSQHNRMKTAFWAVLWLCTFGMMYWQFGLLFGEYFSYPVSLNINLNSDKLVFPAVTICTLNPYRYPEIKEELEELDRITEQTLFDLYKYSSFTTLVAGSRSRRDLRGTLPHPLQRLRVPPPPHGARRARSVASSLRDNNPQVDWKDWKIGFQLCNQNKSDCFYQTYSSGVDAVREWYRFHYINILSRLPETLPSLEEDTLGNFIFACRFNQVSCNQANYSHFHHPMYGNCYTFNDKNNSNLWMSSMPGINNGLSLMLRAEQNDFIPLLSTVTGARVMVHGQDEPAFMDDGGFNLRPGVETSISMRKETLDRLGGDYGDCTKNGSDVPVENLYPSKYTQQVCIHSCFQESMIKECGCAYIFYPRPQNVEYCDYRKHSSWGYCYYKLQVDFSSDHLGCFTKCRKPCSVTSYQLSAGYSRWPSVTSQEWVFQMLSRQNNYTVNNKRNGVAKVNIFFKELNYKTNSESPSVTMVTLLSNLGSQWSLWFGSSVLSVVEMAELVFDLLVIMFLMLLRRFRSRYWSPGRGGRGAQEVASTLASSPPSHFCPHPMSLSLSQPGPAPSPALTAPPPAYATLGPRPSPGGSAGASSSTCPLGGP

[1] = molecular target: T2, Human ENaC δ, β and γ subunit (Homo sapiens, UniProt P51168+P51170+P51172); assay: Measurement of ENaC activation potency (two electrode voltage clamp current in ENaC-expressing oocyte); assay type: cell-based; settings: lowest concentration increasing the current value by not less than 10% vs before addition
T2 construct: expressed in transfected cells; host or cells: Xenopus laevis (African clawed frog) oocytes injected with cRNA
T2 sequence (P51172 1-638 isoform P51172-1): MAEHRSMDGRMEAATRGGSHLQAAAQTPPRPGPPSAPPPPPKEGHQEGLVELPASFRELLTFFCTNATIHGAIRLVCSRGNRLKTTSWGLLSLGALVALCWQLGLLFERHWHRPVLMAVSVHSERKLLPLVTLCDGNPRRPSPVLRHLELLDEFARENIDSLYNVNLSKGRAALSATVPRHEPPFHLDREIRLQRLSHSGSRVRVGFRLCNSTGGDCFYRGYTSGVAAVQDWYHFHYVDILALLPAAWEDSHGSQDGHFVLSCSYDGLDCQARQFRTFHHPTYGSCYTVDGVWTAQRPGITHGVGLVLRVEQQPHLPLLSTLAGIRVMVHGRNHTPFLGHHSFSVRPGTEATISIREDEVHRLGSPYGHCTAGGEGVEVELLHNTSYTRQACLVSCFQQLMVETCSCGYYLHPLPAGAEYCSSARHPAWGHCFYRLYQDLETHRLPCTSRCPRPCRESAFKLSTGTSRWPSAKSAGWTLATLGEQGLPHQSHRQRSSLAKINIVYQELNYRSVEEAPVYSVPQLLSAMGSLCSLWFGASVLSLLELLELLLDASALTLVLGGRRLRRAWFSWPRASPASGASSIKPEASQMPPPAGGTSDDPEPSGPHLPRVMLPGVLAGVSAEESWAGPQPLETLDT
T2 sequence (P51168 1-640): T1 sequence (P51168 1-640)
T2 sequence (P51170 1-649): T1 sequence (P51170 1-649 partner)
Description: ENaC activation current value, namely, the inward current in ENaC-expressing oocyte was measured as follows.
According to the method described in Motonao Nakamura, Takao Shimizu: Experiment of African clawed frog oocyte, Experimental Medicine Vol. 11, No. 3, 224-232 (1993), oocyte was collected from African clawed frog, […], and the current value was measured by a Two Electrode Voltage Clamp technique. In the present invention, ND96 (96 mM NaCl, 2 mM KCl, 1 mM MgCl2, 5 mM Hepes, 1.8 mM CaCl2, pH 7.6) was used instead of MBS buffer in the above-mentioned document. Injector NANOLITER 2000 manufactured by World Precision Instruments was used for microinjection, OpusXpress 6000A manufactured by Molecular Devices was used for current value measurement by a Two Electrode Voltage Clamp technique, and Clampfit 10.2 software manufactured by Molecular Devices was used for data analysis.
Human ENaC δ, β and γ subunit genes shown by SEQ ID NOs: 1, 2 and 3, respectively, in the Sequence Listing were each cloned into a plasmid vector, and used as a template DNA for cRNA synthesis. cRNA was synthesized using MEGAscript kit manufactured by Ambion and according to the method of the manual of the manufacturer.
A mixture of the same amount of ENaC δ subunit cRNA (0.4 to 0.8 μg/μL), and β and γ subunits cRNA (0.4 μg/μL) was injected into the oocyte of African clawed frog at 27.6 nL per oocyte, and the oocyte was cultured for 16 hours to 72 hours. Thereafter, the oocyte was set on a measuring apparatus OpusXpress 6000A, the electrodes were inserted into the oocyte, the voltage was clamped at a level lower by −30 mV than the resting membrane potential by a Two Electrode Voltage Clamp technique, and the current value was measured.
To measure the ENaC activation potency, oocyte was stimulated with each test compound, and the minimum effective dose (hereinafter to be abbreviated as MED) of the compound at the time point when the electric current started to increase was measured. In this case, the minimum effective dose of the stimulation compound that increased the current value by not less than 10%, as compared to the current value before addition of the compound and without stimulation, was taken as MED. A smaller MED means higher ENaC activation potency.
Each test compound was directly dissolved in ND96, or first dissolved in dimethyl sulfoxide (DMSO) to 100 mM, and then prepared by diluting the solution with ND96 to a concentration used for the evaluation. The concentration of the test compound in ND96 was prepared to various concentrations within the range of 0.1 nM to 300 μm.
ND96 as a perfusion fluid was flowed at a rate of 0.5 mL/min through the measuring apparatus OpusXpress 6000A on which ENaC-expressing oocyte was set, the perfusion fluid was temporarily stopped every 3 minutes to add a test compound solution (0.25 mL) dissolved in ND96 at a rate of 0.5 mL/minute. In this way, the test compound was contacted with ENaC-expressing oocyte, and whether ENaC is activated by the compound was examined by measuring the current value. After addition of the test compound, feeding of the perfusion fluid was resumed to wash away the compound to be ready for the next addition of the compound.
The compound was added successively from a low concentration to a high concentration to stimulate ENaC-expressing oocyte. The concentrations actually added was, for example, 1 nM, 3 nM, 10 nM, 30 nM, 100 nM, 300 nM; 1 μM, 3 μM, 10 μm, 30 μm, 100 μm, 300 μm; 1.2 μM, 6 μM, 30 μm, 150 μm of one test compound. The compound was added from low concentrations to high concentrations at 3 minute intervals. The first compound was added from a low concentration to a high concentration, then the second and the third compounds were similarly added successively to the same oocyte, and changes in the current value were measured. The current value was continuously measured from the start to the end of the experiment. […]

In the case of `Cc1cccc2[nH]cc(SC(CC(C)C)C(=O)NCCO)c12` (stereo not drawn) [Example S3969, N-(2-hydroxyethyl)-4-methyl-2-(4-methyl-1H-indol-3-ylthio)pentanamide], the “action on ENaC” value (ENaC β subunit) is listed as “stimulant (activator) of ENaC that acts on β subunit”.

For `Cc1ccc2[nH]cc(CC(NC(=O)CCc3ccccc3)C(=O)O)c2c1` (stereo not drawn) [Example 73], the “MED value (minimum effective dose)” value [1] was 1 to 3 µM.

For `O=C(N[C@@H](Cc1c[nH]c2ccccc12)C(=O)O)c1c(O)cccc1O` [Example 3], the “MED value (minimum effective dose)” value [1] was 0.6 µM.
